{
  "source": "patent US20150328191A1",
  "about": "“USE OF PIDOTIMOD TO TREAT PSORIASIS” (POLICHEM S.A., priority 2012, published 2015)",
  "tested_on": "psoriatic patients (mild psoriasis)",
  "experiment": "Evaluation of pidotimod in psoriatic patients by PASI evaluation; safety also evaluated",
  "assay_type": "in vivo, human",
  "conditions": "800 mg daily oral, 12 weeks",
  "protocol": "An evaluation of the activity of pidotimod was tested on psoriatic patients, in order to assess the efficacy in terms of improvement of the pathology by means of PASI evaluation. The safety of the treatment was also evaluated. The study was performed in 5 patients (3 males and 2 females, aged between 31-53, mean=42) with a clinical diagnosis of mild psoriasis of at least 6 months. […] The body surface area involvement at the baseline was ≦10% with a PASI value ≦10.\nThe study product was taken with the composition of the Example 6 at a dosage of two oral vials daily, i.e. 800 mg daily of the active ingredient, taken far from mealtimes.\nDuring the trial, the following visits were performed: • baseline—T0 (before the product use) • intermediate visit—T6 (after 6 weeks of treatment) • final visit—T12 (after 12 weeks of treatment)\nNo relevant event, which may have interfered to the test results, occurred during the study period.\nThe efficacy of the product was expressed by mean of values of PASI evaluation, assessing the PASI at the baseline and at the intermediate visit and the final one.",
  "note": "Peptide text beside a SMILES is read from it.",
  "data": [
    {"molecule": "O=C1CC[C@@H](C(=O)N2CSC[C@H]2C(=O)O)N1", "note": "[pidotimod, (4R)-3-(5-oxo-L-prolyl)-1,3-thiazolidine-4-carboxylic acid] (HELM PEPTIDE1{[Glp].[O=C(O)[C@@H]1CSCN1[*:1]]}$$$$V2.0)", "values": [
      {"measurement": "Side effects", "setting": "5 patients", "result": "no side effects were reported"},
      {"measurement": "Tolerability of the treatment", "setting": "5 patients", "result": "very well tolerated"},
      {"measurement": "Student t test p for decrease of the PASI value at T12 (end of treatment) vs. T0 (baseline)", "setting": "5 patients, statistically significant decrease", "result": "< 0.05"},
      {"measurement": "Improvement in the clinical evidences of the illness", "setting": "all 5 patients", "result": "important improvement"}
    ]}
  ]
}
